Several values for one entry are separate records, joined by “and”; a condition that tells them apart may be missing. Identical values can stand only once.
Tested on: Pseudomonas aeruginosa (ATCC 15442) biofilm
Test: MBEC (minimum biofilm eradication concentration) test, Calgary Biofilm Device
Type: cell-based
Conditions: for MBEC, ppm as Br2, on 7-day old biofilm: one-hour biocide contact time, biofilm grown seven days in nutrient solution, halogen biocides expressed as Br2
Text: The efficacy of this invention in eradicating (i.e. controlling) Pseudomonas aeruginosa biofilm of sufficient age such that it had developed an extracellular polysaccharide protective slime layer, was shown by a series of standard tests performed on our behalf at MBEC Biofilm Technologies, Inc., Calgary, Canada. The test procedure, developed at the University of Calgary, utilizes a device which allows the growth of 96 identical biofilms under carefully controlled conditions. The device consists of a two-part vessel comprised of an upper plate containing 96 pegs that seals against a bottom plate. The bottom plate can consist of either a trough (for biofilm growth) or a standard 96-well plate (for biocide challenge). The biofilms develop on the 96 pegs. The device has been used as a general method for evaluating the efficacy of antibiotics and biocides towards biofilms. See in this connection H. Ceri, et al., “The MBEC Test: A New In Vitro Assay Allowing Rapid Screening for Antibiotic Sensitivity of Biofilm”, Proceedings of the ASM, 1998,89,525; Ceri, et al., “Antifungal and Biocide Susceptibility testing of Candida Biofilms using the MBEC Device”, Proceedings of the Interscience Conference on Antimicrobial Agents and Chemotherapy, 1998, 38, 495; and H. Ceri, et al., “The Calgary Biofilm Device: A New Technology for the Rapid Determination of Antibiotic Susceptibility of Bacterial Biofilms”, Journal of Clinical Microbiology, 1999, 37, 1771-1776.
Six biocide systems were evaluated using the above test procedure and test equipment. Five of these systems were oxidizing biocides, viz., chlorine (from NaOCl), bromine (from NaOCl+NaBr), bromine and chlorine (from BCDMH), bromine (from sulfamate stabilized bromine chloride), and chlorine (from trichloroisocyanuric acid), all expressed as bromine (Br2) in mg/L, so that all test results were placed on the same basis. The sixth biocide was glutaraldehyde, a non-oxidizing biocide.
These biocide systems were used to challenge biofilms of Pseudomonas aeruginosa (ATCC 15442). This is a Gram (−) bacterium which is known to rapidly develop an extracellular polysaccharide slime layer, and is found in industrial and recreational water systems. See in this connection J. W. Costerton and H. Anwar, “Pseudomonas aeruginosa: The Microbe and Pathogen”, in Pseudomonas aeruginosa Infections and Treatment, A. L. Baltch and R. P. Smith editors, Marcel Dekker publishers, New York, 1994.
In the Table the MBEC (minimum biofilm eradication concentration) results presented are for the one-hour biocide contact time used in the test. The Psuedomonas aeurginosa colony was allowed to grow in contact with a nutrient solution for seven days. The values given for the halogen containing biocides are expressed in terms of mg/L of bromine as Br2. The data on the glutaraldehyde is in terms of mg/L as active ingredient. […]

[1] = average of the results, one-hour contact time, 7-day old biofilm, expressed as Br2

Structure (SMILES)	MBEC, avg. [1] [ppm as Br2]	MBEC, ppm as Br2, on 7-day old biofilm (individual results)	MBEC, avg. (average (est.), one-hour contact time, 7-day old biofilm, glutaraldehyde as active ingredient)	MBEC, on 7-day old biofilm (individual results, one-hour contact time, 7-day old biofilm, glutaraldehyde as active ingredient)
CC1(C)C(=O)N(Cl)C(=O)N1Br [Bromine and chlorine (from BCDMH), N,N′-bromochloro-5,5-dimethylhydantoin]	7.5	5 ppm as Br2 and 10 ppm as Br2		
O=c1n(Cl)c(=O)n(Cl)c(=O)n1Cl [trichloroisocyanuric acid]	20	20, 20 ppm as Br2		
O=CCCCC=O [Glutaraldehyde, glutaraldehyde]			~200 (est.) mg/L as active ingredient	100 mg/L as active ingredient and > 200 mg/L as active ingredient
